Converted amounts (≈) assume the structure as drawn. Like-named read-outs stand apart in the source and are kept apart here.
Key:
[1] = Cytotoxicity assay (MTT) on WI38; format: cell-based; conditions: human
Procedure: (§1) The human non-cancer fibroblast cell line WI38 (ATCC Number CCL-75 – Standards, UK) and macrophage-like murine cell line J774 (ECACC Number 91051511 – Public Health England, UK) were grown in DMEM and RPMI medium (Gibco-Thermo Fisher Scientific, Merelbeke, Belgium or Sigma-Aldrich, Bornem, Belgium), respectively, supplemented with 10% fetal bovine serum and penicillin-streptomycin (100 UI/mL) (Sigma-Aldrich, Bornem, Belgium).
(§2) The cytotoxicity assays were performed as described previously with concentrations ranging from 50 to 1.40 nL/mL (dilution of 1.67). The selectivity index (SI) values were calculated using the formula:SI = IC50 on mammalian cells/IC50 on protozoan parasites

[2] = Cytotoxicity assay (MTT) on J774; format: cell-based, murine; conditions: mouse
Procedure: as §1, §2

[3] = test system: Trypanosoma brucei brucei (Tbb, strain 427) bloodstream form; assay: Anti-trypanosomal assay (alamar blue, 72 h) on Tbb bloodstream form; format: cell-based; conditions: for IC50: Trypanosoma brucei, Tbb bloodstream form
Procedure: Trypanosoma brucei brucei, although not infecting humans because of its susceptibility to the innate immune system, has been used as a good predictive model in a first screening for the identification of anti-trypanosomal compounds [52, 53]. Bloodstream forms of this parasite (Tbb, strain 427) were grown in HMI-9 medium (IMDM-Gibco-Thermo Fisher Scientific, Merelbeke, Belgium-supplemented with 10% heat-inactivated fetal bovine serum (Sigma-Aldrich, Bornem, Belgium) and bloodstream form supporting factors).
The assay was performed in 96-well plates as previously described. The primary screening was repeated two times in triplicate at the concentrations of 50 nL/mL and 25 nL/mL (for 33 EOs) or 10 nL/mL and 5 nL/mL (for 4 EOs). Fifty µL of parasite culture (5 x 10^4 parasites/mL) was added with 50 µL of diluted EOs in each well. Ten µL of alamar blue (diluted with PBS at the ratio 1:1) was added to each well after 72 h of incubation and the plates were further incubated for 4 h. The fluorescence of the reduced reagent was measured on a spectrophotometer at 530 nm excitation and 590 nm emission wavelengths. Suramin was used as positive control. The EOs that inhibited more than 50% of the parasite growth at 25 or 10 nL/mL were analyzed for IC50 determination. Samples were tested in eight serial three-fold dilutions ranging from 50–0.02 nL/mL, except Cinnamomum cassia EO, Curcuma zedoaria EO, and Zingiber zerumbet EO (ranging from 10–0.005 nL/mL) and Dysphania ambrosioides EO (ranging from 5–0.002 nL/mL) in duplicate. IC50 values were calculated from dose response growth inhibition curves using Microsoft Excel files and mean IC50 values were obtained from at least three repetitions.

Tbb bloodstream form = conditions: cited from earlier work
[4] = test system: different human cancer cells; conditions: cited from earlier work
Trypanosoma brucei = conditions: read-out: Anti-trypanosomal IC50; cited from earlier work
[5] = test system: CHO, WI38, Balb/3T3 fibroblast, and J774; set-up: method as in PMID 24269775, PMID 27529211, PMID 16557466; conditions: cited from earlier work
[6] = WI38 human non-cancer fibroblast cells, pure compounds of C. longa EO, read-out: Cytotoxicity (IC50) WI38
[7] = J774 macrophage-like murine cells, pure compounds of C. longa EO, read-out: Cytotoxicity (IC50) J774
[8] = in Curcuma longa, pure compounds of C. longa EO, read-out: Anti-Trypanosomal Activity (IC50)
[9] = highest tested concentration 50 µg/mL

CC[C@@]1(O)C(=O)OCc2c1cc1n(c2=O)Cc2cc3ccccc3nc2-1 [Camptothecin, reference compound]
IC50 ([1]; WI38 human non-cancer fibroblast cells, positive control, read-out: Cytotoxicity (IC50) WI38): 0.035 ± 0.00963 µg/mL (≈ 0.1 µM)
IC50 ([2]; J774 macrophage-like murine cells, positive control, read-out: Cytotoxicity (IC50) J774): 0.00732 ± 0.00129 µg/mL (≈ 0.021 µM)

C=C1C=CC(C(C)CC(=O)C=C(C)C)CC1 (stereo not drawn) [Curlone]
IC50 [1, 6]: 43.6 ± 2.45 µg/mL (≈ 200 µM)
IC50 [2, 7]: 25.1 ± 3.47 µg/mL (≈ 115 µM)
IC50 [3, 8]: 1.38 ± 0.52 µg/mL
IC50 ([3]; read-out: Anti-trypanosomal IC50): 6.32 µM
SI compared to cytotoxicity ([3]; compared to cytotoxicity on mammalian cells (WI38 and J774)): > 10

CC(C)=C1C/C=C(\C)CC/C=C(\C)CC1=O [Germacrone]
Anti-trypanosomal IC50 (Tbb bloodstream form; Tbb bloodstream form, ref 32): > 100 µg/mL

Cc1ccc(C(=O)Nc2ccc(S(=O)(=O)O)c3cc(S(=O)(=O)O)cc(S(=O)(=O)O)c23)cc1NC(=O)c1cccc(NC(=O)Nc2cccc(C(=O)Nc3cc(C(=O)Nc4ccc(S(=O)(=O)O)c5cc(S(=O)(=O)O)cc(S(=O)(=O)O)c45)ccc3C)c2)c1 [Suramin, reference compound]
IC50 ([3]; positive control, read-out: Anti-Trypanosomal Activity (IC50)): 0.0215 ± 0.00262 µg/mL

CC(C)=CCCC(C)c1ccc(C)cc1 (stereo not drawn) [ar-Curcumene]
IC50 [1, 6]: 23.1 ± 1.36 µg/mL (≈ 114 µM)
IC50 [2, 7]: 24 ± 2.64 µg/mL (≈ 119 µM)
IC50 [3, 8]: 13.4 ± 2.46 µg/mL

CC(C)=CC(=O)CC(C)c1ccc(C)cc1 (stereo not drawn) [ar-Turmerone]
IC50 [1]: 43.4 ± 3.89 µg/mL (≈ 201 µM)
IC50 [2]: 44.6 ± 1.41 µg/mL (≈ 206 µM)
IC50 [3, 8]: 28.8 ± 3.93 µg/mL
Apoptotic effects (release of mitochondrial cytochrome c, activation of capase-3) ([4]; at 40, 80, and 120 µg/mL): apoptotic effects

O=C(/C=C/c1ccc(O)cc1)CC(=O)/C=C/c1ccc(O)cc1 [bisdemethoxycurcumin]
IC50 (Trypanosoma brucei): 9.84 ± 0.84 µM

C=C1C2CCC(C2)C1(C)C (stereo not drawn) [camphene]
Anti-trypanosomal IC50 (Tbb bloodstream form; Tbb bloodstream form, ref 41): 80.66 ± 0.87 µg/mL

CC(C)=CCC[C@@H](C)CC=O [citronellal]
Anti-trypanosomal IC50 (Tbb bloodstream form; Tbb bloodstream form, ref 28): 2.76 ± 1.55 µg/mL
Cytotoxicity at the highest tested concentration [5, 9]: did not show any cytotoxicity

CC(C)=CCCC(C)CCO (stereo not drawn) [citronellol]
Anti-trypanosomal IC50 (Tbb bloodstream form; Tbb bloodstream form, ref 28): 6.45 ± 4.86 µg/mL
Cytotoxicity at the highest tested concentration [5, 9]: did not show any cytotoxicity

COc1cc(/C=C/C(=O)CC(=O)/C=C/c2ccc(O)c(OC)c2)ccc1O [curcumin]
IC50 (Trypanosoma brucei): ~5 µM

COc1cc(/C=C/C(O)=C/C(=O)/C=C/c2ccc(O)cc2)ccc1O [demethoxycurcumin]
IC50 (Trypanosoma brucei): 7.19 ± 1.02 µM

CC12CCC(CC1)C(C)(C)O2 [eucalyptol]
Anti-trypanosomal IC50 (Tbb bloodstream form; Tbb): 83.15 µg/mL

C=C(C)[C@H]1CC=C(C)CC1 [limonene]
Anti-trypanosomal IC50 (Tbb bloodstream form; Tbb bloodstream form, ref 28): 4.24 ± 1.27 µg/mL
Anti-trypanosomal IC50 (Tbb bloodstream form; Tbb bloodstream form, ref 29): 5.6 ± 1.6 µg/mL

C=CC(C)(O)CCC=C(C)C (stereo not drawn) [linalool]
Anti-trypanosomal IC50 (Tbb bloodstream form; Tbb bloodstream form, ref 30): 2.5 µg/mL
Cytotoxicity at the highest tested concentration ([5]; highest tested concentration 100 µg/mL): did not show any cytotoxicity

C=C1C=CC(C(C)CCC=C(C)C)CC1 (stereo not drawn) [β-Sesquiphellandrene]
IC50 [1, 6]: 19.1 ± 1.58 µg/mL (≈ 93.5 µM)
IC50 [2, 7]: 21 ± 2.72 µg/mL (≈ 103 µM)
IC50 [3, 8]: 9.89 ± 1.18 µg/mL
Apoptotic effects (release of mitochondrial cytochrome c, activation of capase-3) ([4]; at 5.10 µg/mL): apoptotic effects
